Columns and labels:
[1] = target: recombinant RORγ Ligand Binding Domain (LBD) protein (Homo sapiens (Human), UniProt P51449); assay: Radio-Ligand RORγ Binding Assay (Assay 1); settings: competition with 25-hydroxy[26,27-3H]-cholesterol, SPA; read-out: RORγ Binding Ki Range* (nM) (Assay 1)
Experimental: Radio-Ligand RORγ Binding Assay (Assay 1)
Compounds of the present invention were tested for ability to bind to RORγ in a cell-free competition assay with commercially available radio-ligand (RL), 25-hydroxy[26,27-^3H]-cholesterol (PerkinElmer, Cat. #NET674250UC), for a ligand binding site on a recombinant RORγ Ligand Binding Domain (LBD) protein expressed as a 6×His-Glutathione-S-Transferase (GST) fusion. […] The plate was shaken at 700 rpm for 20 min and incubated for 10 min at rt, after which 40 μL of poly-Lys YSi SPA beads (PerkinElmer, Cat. #RPNQ0010) were added to achieve 50 μg of the beads per well. The plate was incubated on an orbital shaker for 20 min and then for 10 min without agitation at rt. SPA signal for tritium beta radiation was registered on PerkinElmer Microbeta plate reader. […] The percent inhibition vs. concentration data were fit into a four-parameter model, and IC50 values were calculated from the fit as the concentrations corresponding to the inflection points on the dose-response curves. […]

[2] = target: full-length RORγt in Jurkat cells (Homo sapiens (Human), UniProt P51449); assay: RORγt 5×RORE Assay in Jurkat Cells (Assay 2); format: cell-based; settings: 5xRORE secreted Nanoluc luciferase reporter, 16-18 hrs, read-out: RORγt5X IC50 Range* (nM) (Assay 2)
Sequence of full-length RORγt in Jurkat cells (P51449 other isoform, or with tags, fused parts or gaps): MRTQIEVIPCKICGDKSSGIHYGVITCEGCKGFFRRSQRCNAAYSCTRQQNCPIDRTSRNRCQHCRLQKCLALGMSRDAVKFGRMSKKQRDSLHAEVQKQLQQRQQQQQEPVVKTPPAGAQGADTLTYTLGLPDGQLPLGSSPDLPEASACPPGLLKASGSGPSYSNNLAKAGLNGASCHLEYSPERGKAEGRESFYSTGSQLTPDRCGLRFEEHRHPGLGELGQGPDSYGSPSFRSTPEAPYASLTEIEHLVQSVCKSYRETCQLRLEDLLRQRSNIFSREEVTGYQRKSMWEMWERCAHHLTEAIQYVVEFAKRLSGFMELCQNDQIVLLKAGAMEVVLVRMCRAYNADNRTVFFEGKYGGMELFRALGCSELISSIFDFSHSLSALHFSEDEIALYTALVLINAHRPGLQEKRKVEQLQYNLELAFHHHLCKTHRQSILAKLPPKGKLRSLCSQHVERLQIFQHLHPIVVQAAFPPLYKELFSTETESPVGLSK
Experimental: [formula] RORγt 5×RORE Assay in Jurkat Cells (Assay 2)
Compounds of the present invention were tested for RORγ inverse agonist activity in a cell-based, transcriptional activity assay. […] (Promega, Cat. #N1021) using KpnI and HindIII restriction sites. […] Tested compounds were added to the cells in the same media (final concentration of DMSO was 0.1% (v/v)), and the plates were incubated at 37° C./5% CO2 for 16-18 hrs. Luciferase activity in the conditioned supernatants was determined with NanoGlo® assay reagents (Promega, Cat.#N1130).

Sequence of recombinant RORγ Ligand Binding Domain (LBD) protein (P51449 269-508): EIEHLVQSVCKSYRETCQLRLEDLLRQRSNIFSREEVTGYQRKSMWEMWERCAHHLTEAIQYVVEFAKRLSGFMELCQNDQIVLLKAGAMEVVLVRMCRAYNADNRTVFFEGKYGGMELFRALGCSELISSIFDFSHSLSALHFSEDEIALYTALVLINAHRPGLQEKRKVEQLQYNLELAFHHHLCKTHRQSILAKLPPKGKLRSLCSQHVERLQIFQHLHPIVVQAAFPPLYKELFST

Ki [1]	IC50 [2]	Structure (SMILES)
< 100 nM	100 to 1000 nM	CCS(=O)(=O)N1CCC(CNC(=O)c2ccc3c(c2)CN(CC2CCC(OC)(C(F)(F)F)CC2)C3C(C)C)CC1 (single isomer, unassigned) [Compound 13a, N-((1-(ethylsulfonyl)piperidin-4-yl)methyl)-1-isopropyl-2-((4-methoxy-4-(trifluoromethyl)cyclohexyl)methyl)isoindoline-5-carboxamide]
< 100 nM	< 100 nM	CCS(=O)(=O)N1CCC(CNC(=O)c2ccc3c(c2)CN(CC2CCC(OC)(C(F)(F)F)CC2)C3C(C)C)CC1 (single isomer, unassigned) [Compound 13b, N-((1-(ethylsulfonyl)piperidin-4-yl)methyl)-1-isopropyl-2-((4-methoxy-4-(trifluoromethyl)cyclohexyl)methyl)isoindoline-5-carboxamide]
< 100 nM	> 1000 nM	COC1(C(F)(F)F)CCC(CN2Cc3cc(C(=O)NCC4CCN(S(C)(=O)=O)CC4)ccc3[C@@H]2C(C)C)CC1 (single isomer, unassigned) [Compound 14b]
< 100 nM	< 100 nM	CCS(=O)(=O)c1ccc(CNC(=O)c2ccc3c(c2)CN(CC2CCC(C(F)(F)F)OC2)[C@H]3C(C)C)nc1 (single isomer, unassigned) [Compound 16a]
	< 100 nM	CCS(=O)(=O)c1ccc(CNC(=O)c2ccc3c(c2)CN(CC2CCC(C(F)(F)F)OC2)[C@H]3C(C)C)nc1 (single isomer, unassigned) [Compound 16b]
< 100 nM	< 100 nM	CC[C@H]1c2ccc(C(=O)N[C@@H](COC(N)=O)c3ccc(S(=O)(=O)CC)cc3)cc2CN1C[C@H]1CC[C@H](C(F)(F)F)CC1 (single isomer, unassigned) [Compound 24a]
< 100 nM	> 1000 nM	CC[C@H]1c2ccc(C(=O)N[C@@H](COC(N)=O)c3ccc(S(=O)(=O)CC)cc3)cc2CN1C[C@H]1CC[C@H](C(F)(F)F)CC1 (single isomer, unassigned) [Compound 24b]
< 100 nM	< 100 nM	CCS(=O)(=O)c1ccc(CNC(=O)c2ccc3c(c2)C(=O)N(Cc2ccc(C(F)(F)F)cc2)C3C(C)C)cc1 (single isomer, unassigned) [Compound 26a, N-(4-(ethylsulfonyl)benzyl)-1-isopropyl-3-oxo-2-(4-(trifluoromethyl)benzyl)isoindoline-5-carboxamide]
< 100 nM	100 to 1000 nM	CCS(=O)(=O)c1ccc(CNC(=O)c2ccc3c(c2)C(=O)N(Cc2ccc(C(F)(F)F)cc2)C3C(C)C)cc1 (single isomer, unassigned) [Compound 26b, N-(4-(ethylsulfonyl)benzyl)-1-isopropyl-3-oxo-2-(4-(trifluoromethyl)benzyl)isoindoline-5-carboxamide]
< 100 nM	< 100 nM	CCS(=O)(=O)c1ccc(CNC(=O)c2ccc3c(c2)CN(C[C@H]2CO[C@H](C(F)(F)F)OC2)[C@H]3C(C)C)nc1 (single isomer, unassigned) [Compound 32a]
< 100 nM	> 1000 nM	CCS(=O)(=O)c1ccc(CNC(=O)c2ccc3c(c2)CN(C[C@H]2CO[C@H](C(F)(F)F)OC2)[C@H]3C(C)C)nc1 (single isomer, unassigned) [Compound 32b]
< 100 nM	< 100 nM	CC[C@H]1c2ccc(C(=O)NCc3ccc(S(=O)(=O)NC)cn3)cc2CN1C[C@H]1CC[C@H](C(F)(F)F)CC1 [Compound 23a]
< 100 nM	100 to 1000 nM	CC[C@@H]1c2ccc(C(=O)NCc3ccc(S(=O)(=O)NC)cn3)cc2CN1C[C@H]1CC[C@H](C(F)(F)F)CC1 [Compound 23b]

Second part, the molecule before the results:

Structure (SMILES)	Ki [1]	IC50 [2]
CCO[C@H]1CC[C@H](CN2Cc3cc(C(=O)NCc4ccc(S(=O)(=O)CC)cn4)ccc3[C@@H]2C(C)C)CC1 (single isomer, unassigned) [Compound 7a, 2-((trans-4-ethoxycyclohexyl)methyl)-N-((5-(ethylsulfonyl)pyridin-2-yl)methyl)-1-isopropylisoindoline-5-carboxamide]	< 100 nM	< 100 nM
CCO[C@H]1CC[C@H](CN2Cc3cc(C(=O)NCc4ccc(S(=O)(=O)CC)cn4)ccc3[C@H]2C(C)C)CC1 (single isomer, unassigned) [Compound 7b, 2-((trans-4-ethoxycyclohexyl)methyl)-N-((5-(ethylsulfonyl)pyridin-2-yl)methyl)-1-isopropylisoindoline-5-carboxamide]	> 1000 nM	
CCS(=O)(=O)c1ccc(CNC(=O)c2ccc3c(c2)CN(CC2CCC(O)(C(F)(F)F)CC2)C3C(C)C)cc1 (single isomer, unassigned) [Compound 12a, N-(4-(ethylsulfonyl)benzyl)-2-((4-hydroxy-4-(trifluoromethyl)cyclohexyl)methyl)-1-isopropylisoindoline-5-carboxamide]	< 100 nM	< 100 nM
CCS(=O)(=O)c1ccc(CNC(=O)c2ccc3c(c2)CN(CC2CCC(O)(C(F)(F)F)CC2)C3C(C)C)cc1 (single isomer, unassigned) [Compound 12b, N-(4-(ethylsulfonyl)benzyl)-2-((4-hydroxy-4-(trifluoromethyl)cyclohexyl)methyl)-1-isopropylisoindoline-5-carboxamide]	< 100 nM	> 1000 nM
CCS(=O)(=O)c1ccc(CNC(=O)c2ccc3c(c2)CN(CC2CCC(O)(C(F)(F)F)CC2)C3C(C)C)cc1 (single isomer, unassigned) [Compound 12c, N-(4-(ethylsulfonyl)benzyl)-2-((4-hydroxy-4-(trifluoromethyl)cyclohexyl)methyl)-1-isopropylisoindoline-5-carboxamide]	< 100 nM	100 to 1000 nM
CCS(=O)(=O)c1ccc(CNC(=O)c2ccc3c(c2)CN(CC2CCC(O)(C(F)(F)F)CC2)C3C(C)C)cc1 (single isomer, unassigned) [Compound 12d, N-(4-(ethylsulfonyl)benzyl)-2-((4-hydroxy-4-(trifluoromethyl)cyclohexyl)methyl)-1-isopropylisoindoline-5-carboxamide]	< 100 nM	< 100 nM
CCS(=O)(=O)c1ccc([C@H](CO)NC(=O)c2ccc3c(c2)CN(C[C@H]2CC[C@H](C(F)(F)F)CC2)[C@H]3C(C)C)cc1 [Compound 3a]	< 100 nM	< 100 nM
CCS(=O)(=O)c1ccc([C@H](CO)NC(=O)c2ccc3c(c2)CN(C[C@H]2CC[C@H](C(F)(F)F)CC2)[C@@H]3C(C)C)cc1 [Compound 3b]	< 100 nM	100 to 1000 nM
CCS(=O)(=O)c1ccc([C@@H](CO)NC(=O)c2ccc3c(c2)CN(C[C@H]2CC[C@H](C(F)(F)F)CC2)[C@H]3C(C)C)cc1 [Compound 3c]	< 100 nM	< 100 nM
CCS(=O)(=O)c1ccc([C@@H](CO)NC(=O)c2ccc3c(c2)CN(C[C@H]2CC[C@H](C(F)(F)F)CC2)[C@@H]3C(C)C)cc1 [Compound 3d]	< 100 nM	> 1000 nM
CC(C)[C@H]1c2ccc(C(=O)NCC3CCN(S(C)(=O)=O)CC3)cc2CN1C[C@H]1CC[C@H](C(F)(F)F)CC1 [Compound 4a]	< 100 nM	< 100 nM
CC(C)[C@@H]1c2ccc(C(=O)NCC3CCN(S(C)(=O)=O)CC3)cc2CN1C[C@H]1CC[C@H](C(F)(F)F)CC1 [Compound 4b]	100 to 1000 nM	
CCS(=O)(=O)c1ccc([C@H](CCO)NC(=O)c2ccc3c(c2)CN(C[C@H]2CC[C@H](C(F)(F)F)CC2)[C@H]3C(C)C)cc1 [Compound 6a]	< 100 nM	< 100 nM
CCS(=O)(=O)c1ccc([C@H](CCO)NC(=O)c2ccc3c(c2)CN(C[C@H]2CC[C@H](C(F)(F)F)CC2)[C@@H]3C(C)C)cc1 [Compound 6b]	< 100 nM	100 to 1000 nM
CCS(=O)(=O)N1CCC(CNC(=O)c2ccc3c(c2)CN(CC2CCC(OC)(C(F)(F)F)CC2)C3C(C)C)CC1 (centres unmarked) [Compound 13c and 13d, N-((1-(ethylsulfonyl)piperidin-4-yl)methyl)-1-isopropyl-2-((4-methoxy-4-(trifluoromethyl)cyclohexyl)methyl)isoindoline-5-carboxamide]	100 to 1000 nM	
CC[C@H]1c2ccc(C(=O)NCc3ccc(S(=O)(=O)NC)cc3)cc2CN1C[C@H]1CC[C@H](C(F)(F)F)CC1 [Compound 22]	< 100 nM	< 100 nM
CCS(=O)(=O)c1ccc(CNC(=O)c2ccc3c(c2)C(=O)N(Cc2ccc(C(F)(F)F)cc2)C3C(C)C)nc1 (centres unmarked) [Compound 27]	< 100 nM	100 to 1000 nM
CCS(=O)(=O)c1ccc([C@H](CO)NC(=O)c2ccc3c(c2)C(=O)N(Cc2ccc(C(F)(F)F)cc2)C3C(C)C)cc1 (some centres unmarked) [Compound 28]	< 100 nM	< 100 nM
CCC1(C)c2ccc(C(=O)NCc3ccc(S(=O)(=O)CC)cc3)cc2C(=O)N1CC1CCC(C(F)(F)F)CC1 (centres unmarked) [Compound 31, 1-ethyl-N-(4-(ethylsulfonyl)benzyl)-1-methyl-3-oxo-2-((4-(trifluoromethyl)cyclohexyl)methyl)isoindoline-5-carboxamide]	> 1000 nM	

Reference: patent US9845308B2, “Isoindoline inhibitors of ROR-gamma” (Vitae Pharmaceuticals, Inc., priority 2014, dated 2017)
